Assay: Evaluation of storage stability: purity of stored solid DOTAGA-DBCO by HPLC area percentage
Format: physicochemical
Details: for long-term storage stability (in words): refrigerating or freezing conditions, after 6 months storage
Protocol: Thereafter, the brown vial containing DOTAGA-DBCO was placed under each of the conditions: room temperature (Example 1: 21 to 25° C.); high temperature (Example 2: 40° C.); refrigerating (Example 3: 5° C.); and freezing (Example 4: -20° C.), and stored for a predetermined period.
Thereafter, the colorless transparent glass vial containing DOTAGA-DBCO was placed under the condition of room temperature (Example 5: 19 to 23° C.) and stored for a predetermined period.
Subsequently, DOTAGA-DBCO obtained by drying in the same manner as in Examples 1 to 4 was put in a brown vial, and the brown vial was placed under each of the conditions: room temperature (Comparative Example 1: 21 to 25° C.); and high temperature (Comparative Example 2: 40° C.), and stored for a predetermined period.
For DOTAGA-DBCOs in each of Examples and Comparative Examples, the purity was measured by the following measurement method at each time point: at the start of storage, after 7 days storage, after 1 month storage, after 3 months storage, and after 6 months storage. The smaller deterioration in purity with respect to the purity at the start of storage, the more excellent the storage stability.
1.0 mg of the objective compound was precisely weighed. For Examples 1 and 2 and Comparative Examples 1 and 2, a mixture of 10 mmol/L ammonium formate solution (pH 3.0)/acetonitrile for liquid chromatography (95:5) was added to make an exactly 10 mL sample solution. For Examples 3 and 4, a mixture of 10 mmol/L ammonium formate solution (pH 3.0)/methanol for liquid chromatography (95:5) was added to make an exactly 10 mL sample solution. For Example 5, methanol for liquid chromatography was added to make an exactly 10 mL sample solution.
For 10 μL of each of these sample solutions, high performance liquid chromatography measurement was conducted under the following conditions. The peak area of the sample solution was measured with automatic integration method, and the amount of these compounds was determined through area percentage method. Each sample solution was prepared one time and measured 3 times. The arithmetic average value of the three measurement results was defined as purity (%). Note that, at the start of storage, each sample solution was prepared and measured one time, respectively.
• Detector (1): ultraviolet absorptiometer (measurement wavelength: 290 nm, 308 nm) • Detector (2): ACQ-QDa (Positive scan: cone voltage 15 V, capillary voltage 0.8 V; Negative scan: cone voltage 15 V, capillary voltage 0.8 V, scanning range: m/z 50 to 1200) • Column: a stainless steel tube having an inner diameter of 4.6 mm and a length of 10 cm, packed with 3.5 μm octadecylsilylated silica gel for liquid chromatography (XBridge C18) • Column temperature: maintained at a constant temperature of about 25° C.
• Mobile phase: (Mobile phase A) 10 mmol/L ammonium formate solution (pH 3.0) and (Mobile phase B) acetonitrile were used for liquid feeding while controlling the concentration gradient (vol %) in the order of the following (i) to (v). The flow rate of each mobile phase was 1 mL/min.

[1] = storage conditions: room temperature
[2] = stored at 5° C. (refrigerating)

Compound: O=C(O)CN1CCN(CC(=O)O)CCN(C(CCC(=O)NCCC(=O)N2Cc3ccccc3C#Cc3ccccc32)C(=O)O)CCN(CC(=O)O)CC1 (stereo not shown) [Comparative Example 1, DOTAGA-DBCO]
- Purity (%) of compound at storage start [1]: 96.4%
- Purity (%) of compound after 1 month (stored at room temperature): 90.9%
- Purity (%) of compound after 7 days (stored at room temperature): 95.5%

Compound: O=C(O)CN1CCN(CC(=O)O)CCN(C(CCC(=O)NCCC(=O)N2Cc3ccccc3C#Cc3ccccc32)C(=O)O)CCN(CC(=O)O)CC1 (stereo not shown) [Comparative Example 2, DOTAGA-DBCO]
- Purity (%) of compound at storage start (storage conditions: 40° C.): 96.4%
- Purity (%) of compound after 1 month (stored at 40° C.): 52.2%
- Purity (%) of compound after 7 days (stored at 40° C.): 86.1%

Compound: O=C(O)CN1CCN(CC(=O)O)CCN(C(CCC(=O)NCCC(=O)N2Cc3ccccc3C#Cc3ccccc32)C(=O)O)CCN(CC(=O)O)CC1 (stereo not shown) [Example 1, DOTAGA-DBCO]
- Purity (%) of compound at storage start [1]: 97.6%
- Purity (%) of compound after 1 month (stored at room temperature): 96.9%
- Purity (%) of compound after 3 months (stored at room temperature): 95.7%
- Purity (%) of compound after 6 months (stored at room temperature): 93.6%
- Purity (%) of compound after 7 days (stored at room temperature): 97.1%

Compound: O=C(O)CN1CCN(CC(=O)O)CCN(C(CCC(=O)NCCC(=O)N2Cc3ccccc3C#Cc3ccccc32)C(=O)O)CCN(CC(=O)O)CC1 (stereo not shown) [Example 2, DOTAGA-DBCO]
- Purity (%) of compound at storage start (storage conditions: 40° C.): 97.6%
- Purity (%) of compound after 1 month (stored at 40° C.): 96.7%
- Purity (%) of compound after 3 months (stored at 40° C.): 93.9%
- Purity (%) of compound after 6 months (stored at 40° C.): 92.0%
- Purity (%) of compound after 7 days (stored at 40° C.): 96.9%

Compound: O=C(O)CN1CCN(CC(=O)O)CCN(C(CCC(=O)NCCC(=O)N2Cc3ccccc3C#Cc3ccccc32)C(=O)O)CCN(CC(=O)O)CC1 (stereo not shown) [Example 3, DOTAGA-DBCO]
- long-term storage stability (in words): purity at the start of storage is maintained even after 6 months storage
- Purity (%) of compound at storage start (storage conditions: 5° C. (refrigerating)): 96.9%
- Purity (%) of compound after 1 month [2]: 97.0%
- Purity (%) of compound after 3 months [2]: 93.2%
- Purity (%) of compound after 6 months [2]: 96.8%
- Purity (%) of compound after 7 days [2]: 97.4%

Compound: O=C(O)CN1CCN(CC(=O)O)CCN(C(CCC(=O)NCCC(=O)N2Cc3ccccc3C#Cc3ccccc32)C(=O)O)CCN(CC(=O)O)CC1 (stereo not shown) [Example 4, DOTAGA-DBCO]
- long-term storage stability (in words): purity at the start of storage is maintained even after 6 months storage
- Purity (%) of compound at storage start (storage conditions: −20° C. (freezing)): 96.9%
- Purity (%) of compound after 1 month (stored at −20° C. (freezing)): 97.6%
- Purity (%) of compound after 3 months (stored at −20° C. (freezing)): 93.5%
- Purity (%) of compound after 6 months (stored at −20° C. (freezing)): 95.5%
- Purity (%) of compound after 7 days (stored at −20° C. (freezing)): 97.4%

Compound: O=C(O)CN1CCN(CC(=O)O)CCN(C(CCC(=O)NCCC(=O)N2Cc3ccccc3C#Cc3ccccc32)C(=O)O)CCN(CC(=O)O)CC1 (stereo not shown) [Example 5, DOTAGA-DBCO]
- Purity (%) of compound at storage start [1]: 97.5%
- Purity (%) of compound after 1 month (stored at room temperature): 96.0%
- Purity (%) of compound after 7 days (stored at room temperature): 97.2%

Source: patent US20240166631A1, “COMPOUND, METHOD FOR PRODUCING AND METHOD FOR STORING COMPOUND, METHOD FOR PRODUCING TARGETING AGENT, AND COMPOSITION” (NIHON MEDI-PHYSICS CO., LTD, priority 2021, published 2024)
